Consider eight compounds from patent publication US5554615A, “Condensed pyrimidine derivative” (Eisai Co., Ltd., priority 1991, dated 1996).

SMILES strings stand for the structures. Like-named read-outs stand apart in the source and are kept apart here.

One series has as its system Mouse leukemic cell P388. Description: Inhibitory activity against proliferation of oncocyte, P388 (MTT method). The series is classed as cell-based. The note with it: 72 h. How it is done: (§1) Mouse leukemic cell P388, mouse colonic cancer cell Colon 38, human rhinopharyngeal cancer cell KB and human lung cancer cell A549 were used as the oncocytes. […] The microplate was placed in a carbon dioxide incubator containing 5% of CO2 and incubated at 37° C. for one day. The DMSO solution of the compound according to the present invention was diluted with the culture medium to prepare the serial dilutions of the compound. These dilutions were added to the above wells in a predetermined amount. The resulting plate was cultured at 37° C. for 3 days. […] The number of viable cells was determined according to the method of M. C.

Series [1] has as its system mouse colonic cancer cell Colon 38. Description: Inhibitory activity against proliferation of oncocyte, Colon 38 (MTT method). The series is classed as cell-based. As to conditions: 72 h. How it is done: as §1
The target in series [2] is T1, dihydrofolate reductase (DHFR) (Mus musculus, UniProt P00375).
T1 construct: DHFR was prepared from mouse leukemic cell P388; endogenous in cells; host or cells: P388 mouse leukemia cells (enzyme purified from the cells)
T1 sequence (P00375 1-187): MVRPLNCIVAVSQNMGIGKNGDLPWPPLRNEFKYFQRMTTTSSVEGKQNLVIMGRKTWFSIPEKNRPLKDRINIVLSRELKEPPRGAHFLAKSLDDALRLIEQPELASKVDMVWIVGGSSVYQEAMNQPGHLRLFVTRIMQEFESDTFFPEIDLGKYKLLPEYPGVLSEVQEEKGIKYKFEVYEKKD
The experiment in a line: Inhibitory activity against dihydrofolate reductase (DHFR). The series is classed as biochemical. The method, then: DHFR was prepared from mouse leukemic cell P388 according to the method of J. M. Whiteley et al. [see Arch.
A solution of purified DHFR was added to a solution comprising a potassium phosphate buffer solution (pH: 7.5, 75 mM), mercaptoethanol (7.5 mM) and NADPH (0.25 mM) to make up to a total amount of 0.57 mi. Each of the serial dilutions of the compound according to the present invention in an amount of 0.015 ml was added to the mixture prepared above. […] The obtained mixtures were kept at 37° C. for 5 minutes to conduct a reaction.

Series [3] has as its system human lung cancer cell A549. The experiment in a line: Inhibitory activity against proliferation of oncocyte, A549 (MTT method). The series is classed as cell-based. As to conditions: 72 h. How it is done:
as §1

Series [4] deals with human rhinopharyngeal cancer cell KB. Description: Inhibitory activity against proliferation of oncocyte, KB (MTT method). As to conditions: 72 h. The series is classed as cell-based. How it is done:
as §1

The subject of a further series is LX-1. The experiment in a line: Inhibitory activity against proliferation of oncocyte, LX-1. The series is classed as cell-based. As to conditions: Homo sapiens, 72 h, Table 2-B, 3 days.
The test system of the next series is Mouse P388 leukemia. The experiment in a line: Activity against experimental tumor transplanted to mouse (P388 leukemia). The series is classed as in vivo. The note with it: for T/C / MST: i.p., once a day for four days; for ratio of the maximum effective dose to the minimum one: tumor bearing mouse (CDF1). How it is done:
P388 cells (1×10^6) were inoculated into the abdominal cavity of a female CDF1 mouse of 7 weeks of age and a test drug was administered to the mouse once a day for four days from the next day.
Each test drug was administered intraperitoneally in a state dissolved or suspended in a 4% solution of NaHCO3 in physiological saline, while only a 4% solution of NaHCO3 in physiological saline was administered to a control group. Each control group was composed of ten mice, while each medicated group was composed of six mice. The antitumor activity was evaluated based on the T/C value calculated according to the following formula: [formula]
The measurement was conducted according to the method of R. I. Geran et al. (see Cancer Chemotherapy Reports (Part 3), 31 (1972)).

The conditions of series [5]: in words; cited from earlier work.
Series [6] has as its system dihydrofolate reductase (DHFR). The note with it: in words; cited from earlier work.
Setting [7] is: read-out: 50% cell proliferation-inhibitory concentration (IC50), Table 2-A, 3 days.
Where [8] appears, read: read-out: 50% cell proliferation-inhibitory concentration (IC50), Table 2-A, KB, 3 days.
The mark [9] stands for this setting: Table 2-B, 3 days, read-out: Proliferation-inhibitory activity IC50.
Setting [10] is: Table 2-B, KB, 3 days, read-out: Proliferation-inhibitory activity IC50.

`CCC(CCn1ccc2nc(N)nc(N)c21)c1ccc(C(=O)N[C@@H](CCC(=O)O)C(=O)O)cc1` (stereo partly drawn) [Ex. 6, N-[4-[3-(2,4-Diaminopyrrolo[3,2-d]pyrimidin-5-yl)-1-ethylpropyl]benzoyl]-L-glutamate]: the IC50 in the series with Mouse leukemic cell P388 (setting [7]) worked out at 12 nM; in series [1] (setting [7]), 340 nM; in series [2], 1000 nM; in series [3] (setting [7]), 940 nM; in series [4] (setting [8]), 30 nM.

Broadly, the T/C is the ratio of treated to control. Turning to `Nc1nc(N)c2c(n1)CCC2CCCc1ccc(C(=O)N[C@@H](CCC(=O)O)C(=O)O)s1` (stereo partly drawn) [Ex. 105, N-{5-[3-(2,4-diamino-6,7-dihydro-5H-cyclopenta[d]pyrimidin-5-yl)propyl]-2-thenoyl}-L-glutamic acid], the IC50 was 0.67 nM with LX-1; 1.8 nM in the series on Mouse leukemic cell P388 (setting [9]); 0.87 nM in series [1] (setting [9]); 4 nM in series [2]; 2.4 nM in series [3] (setting [9]); 0.92 nM in [4] (setting [10]). Also, the T/C is listed as 126% with Mouse P388 leukemia (Table 3-B, 0.05 mg/kg); 151% with Mouse P388 leukemia (Table 3-B, 0.20 mg/kg); 176% in the series on Mouse P388 leukemia (Table 3-B, 0.78 mg/kg); 151% with Mouse P388 leukemia (Table 3-B, 3.13 mg/kg).

For `CCC(Cn1ccc2nc(N)nc(N)c21)c1ccc(C(=O)N[C@@H](CCC(=O)O)C(=O)O)cc1` (stereo partly drawn) [Ex. 9, N-[4-[2-(2,4-Diaminopyrrolo[3,2-d]pyrimidin-5-yl)-1-ethylethyl]benzoyl]-L-glutamate], the IC50 was 17 nM in the series with Mouse leukemic cell P388 (setting [7]); 39 nM in series [1] (setting [7]); 30 nM in series [2]; 100 nM in [3] (setting [7]); 32 nM in series [4] (setting [8]). For the same compound, the MST in the series on Mouse P388 leukemia (Table 3-A, 0.78 mg/kg) was 16.3 ± 1.02; with Mouse P388 leukemia (Table 3-A, 3.13 mg/kg), 14.8 ± 0.83; with Mouse P388 leukemia (Table 3-A, 50.0 mg/kg), 15.0 ± 0.71. Further, the T/C in the series with Mouse P388 leukemia (Table 3-A, 0.78 mg/kg) is given as 181%; in the series on Mouse P388 leukemia (Table 3-A, 3.13 mg/kg), 164%; in the series with Mouse P388 leukemia (Table 3-A, 50.0 mg/kg) it was 167%. Also, the “ratio of the maximum effective dose to the minimum one” value with Mouse P388 leukemia is “about 60”.

With `CC(CCn1ccc2nc(N)nc(N)c21)c1ccc(C(=O)N[C@@H](CCC(=O)O)C(=O)O)cc1` (stereo partly drawn) [Ex. 4, N-[4-[3-(2,4-Diaminopyrrolo[3,2-d]pyrimidin-5-yl)-1-methylpropyl]benzoyl]-L-glutamate], the IC50 worked out at 16 nM with Mouse leukemic cell P388 (setting [7]); 129 nM in series [1] (setting [7]); 90 nM in series [2]; 63 nM in [3] (setting [7]); 31 nM in series [4] (setting [8]). Besides, the MST in the series on Mouse P388 leukemia (Table 3-A, 50.0 mg/kg) worked out at 18.5 ± 1.12. The compound further showed a T/C in the series on Mouse P388 leukemia (Table 3-A, 50.0 mg/kg) of 185%.

On to `Nc1nc(N)c2c(n1)CCC2CCc1ccc(C(=O)N[C@@H](CCC(=O)O)C(=O)O)cc1` (stereo partly drawn) [Ex. 103, N-{4-[2-(2,4-diamino-6,7-dihydro-5H-cyclopenta[d]pyrimidin-5-yl)ethyl]benzoyl}-L-glutamic], for which the IC50 worked out at 7.7 nM in the series with Mouse leukemic cell P388 (setting [9]); 8.9 nM in series [1] (setting [9]); 72 nM in series [2]; 9.8 nM in series [3] (setting [9]); 3.8 nM in series [4] (setting [10]). Besides, the T/C was found to be 129% in the series with Mouse P388 leukemia (Table 3-B, 0.78 mg/kg); 135% in the series with Mouse P388 leukemia (Table 3-B, 3.13 mg/kg); 148% in the series with Mouse P388 leukemia (Table 3-B, 50 mg/kg).

As for `Nc1nc(N)c2c(n1)CCC2CCCc1ccc(C(=O)N[C@@H](CCC(=O)O)C(=O)O)cc1` (some centres unmarked) [Ex. 108], the IC50 was 2.7 nM with Mouse leukemic cell P388 (setting [9]), 4.1 nM in series [1] (setting [9]), 9.3 nM in [3] (setting [9]) and 1.6 nM in series [4] (setting [10]). Besides, the T/C with Mouse P388 leukemia (Table 3-B, 0.20 mg/kg) stood at 133%; in the series on Mouse P388 leukemia (Table 3-B, 0.78 mg/kg), 150%; in the series with Mouse P388 leukemia (Table 3-B, 3.13 mg/kg) it was 170%.

For the compound `CN(Cc1cnc2nc(N)nc(N)c2n1)c1ccc(C(=O)N[C@@H](CCC(=O)O)C(=O)O)cc1` [MTX, Methotrexate, reference compound], in [5], the potent adverse effects result is “bone marrow suppression and degradation of the intestinal epithelium”. For the same compound, the IC50 came to 22 nM in the series on Mouse leukemic cell P388 (setting [9]); 16 nM with Mouse leukemic cell P388 (setting [7]); 28 nM in [1] (setting [9]); 60 nM in series [1] (setting [7]); 88 nM in series [3] (setting [9]); 80 nM in series [3] (setting [7]). Moreover, the values for the IC50 in series [4] (setting [10]) and in series [4] (read-out: 50% cell proliferation-inhibitory concentration (IC50)) were 11 nM and 20 nM, respectively. In series [6], the “inhibitory activity against dihydrofolate reductase (DHFR)” value was “high inhibitory activity”.

`Nc1nc(N)c2c(ccn2CCCc2ccc(C(=O)N[C@@H](CCC(=O)O)C(=O)O)cc2)n1` [Ex. 2, N-[4-[3-(2,4-Diaminopyrrolo[3,2-d]pyrimidin-5-yl)propyl]benzoyl]-L-glutamat]: the IC50 with Mouse leukemic cell P388 (setting [7]) amounted to 12 nM; in series [1] (setting [7]) it was 40 nM; in series [2], 97 nM; in series [3] (setting [7]), 19 nM; in series [4] (setting [8]), 9.8 nM. Moreover, the MST in the series on Mouse P388 leukemia (Table 3-A, 3.13 mg/kg) is reported as 13.3 ± 0.47; with Mouse P388 leukemia (Table 3-A, 6.25 mg/kg), 13.5 ± 0.50; in the series with Mouse P388 leukemia (Table 3-A, 25.0 mg/kg), 14.0 ± 0.71; with Mouse P388 leukemia (Table 3-A, 50.0 mg/kg) it was 14.8 ± 0.83; with Mouse P388 leukemia (Table 3-A, 100.0 mg/kg), 14.8 ± 0.83; in the series with Mouse P388 leukemia (Table 3-A, 200.0 mg/kg), 16.0 ± 0.82. In addition, the T/C came out at 148% in the series with Mouse P388 leukemia (Table 3-A, 3.13 mg/kg); 150% in the series with Mouse P388 leukemia (Table 3-A, 6.25 mg/kg); 156% with Mouse P388 leukemia (Table 3-A, 25.0 mg/kg); 164% in the series on Mouse P388 leukemia (Table 3-A, 50.0 mg/kg); 164% with Mouse P388 leukemia (Table 3-A, 100.0 mg/kg); 178% with Mouse P388 leukemia (Table 3-A, 200.0 mg/kg). The “ratio of the maximum effective dose to the minimum one” value in the series with Mouse P388 leukemia was “about 60”.
